Source: patent publication US4683239A, “3-diphenyl substituted octahydroindolizine analgesic compounds” (McNeilab, Inc., priority 1986, dated 1987)
Counter-ions that a name gives are not always drawn.

Test system: mice
Experiment: Mouse Acetylcholine-Bromide-Induced Abdominal Constriction Assay
Type: in vivo
Conditions: oral (p.o.), 30 min before i.p. 5.5 mg/kg acetylcholine bromide; for ED50: Mus musculus, po, 0.5 h, dose which inhibits writhing by 50%; for % Inhibition of writhing (% analgesia): @ 30 mg/kg, printed in ED50 column
Protocol: […]., 32: 295-310, 1968, with minor modifications was used to assess analgesic potency of the compounds of formula (I). The test drugs or appropriate vehicle were administered orally (p.o.) and 30 minutes later the animals received an intraperitoneal (i.p.) injection of 5.5 mg/kg acetylcholine bromide (Matheson, Coleman and Bell, East Rutherford, NJ). The mice were then placed in groups of four into glass bell jars and observed for a ten minute observation period for the occurrence of a writhe (defined as a wave of constriction and elongation passing caudally along the abdominal wall, accompanied by a twisting of the trunk and followed by extension of the hind limbs). The percent inhibition of writhing (equated to % analgesia) was calculated as follows: The % Inhibition of writhing, i.e., % analgesia is equal to the difference between the No. of control animals writhing and the No. of drug-treated animals writhing times 100 divided by the No. of control animals writhing. At least 20 animals were used for control and in each of the drug treated groups. Four doses were used to determine each dose response curve and ED50 (that dose which inhibits writhing by 50%). The ED50 values and their 95% fiducial limits were determined by a computer assisted probit analysis.

Row | SMILES | ED50 | % Inhibition of writhing (% analgesia)
1 | CC(=O)Nc1cccc(C#Cc2ccc([C@@H]3CC[C@@H]4CCCCN43)cc2)c1 (relative stereo) [Example 2, N-[3-[[4-(trans-Octahydro-3-indolizinyl)phenyl]ethynyl]phenyl]acetamide] | 17.6 mg/kg | 
2 | CC(=O)Nc1ccc(Oc2ccc([C@H]3CC[C@H]4CCCCN43)cc2)cc1 (relative stereo) [Example 12f, N-[4-[4-trans-Octahydro-3-indolizinyl)phenoxy]phenylacetamide] | ≤ 5 mg/kg | 
3 | Cc1ccc(Sc2ccc(C3CCC4CCCCN43)cc2)cc1.Cl (stereo not drawn) [Example 7, 3-[4-[(4-Methylphenyl)thio]phenyl]octahydroindolizine Hydrochloride] | 20 to 30 mg/kg | 
4 | CC(=O)Nc1cccc(CCc2ccc([C@@H]3CC[C@@H]4CCCCN43)cc2)c1 (relative stereo) [Example 9, N-[3-[2-[4-(trans-Octahydro-3-indolizinyl)phenyl]ethyl]phenyl]acetamide] |  | 86%
5 | CC(=O)Nc1ccc(Sc2ccc([C@@H]3CC[C@@H]4CCCCN43)cc2)c(Cl)c1.Cl (relative stereo) [Example 13e] |  | 46%
6 | Cl.c1ccc(CCc2ccc([C@@H]3CC[C@@H]4CCCCN43)cc2)cc1 (relative stereo) [Example 6, trans-Octahydro-3-[4-(2-phenylethyl)phenyl]indolizine Hydrochloride] | 6.9 mg/kg | 
7 | CC(=O)Nc1cccc(Sc2ccc([C@H]3CC[C@H]4CCCCN43)cc2)c1 (relative stereo) [Example 11, N-[3-[[4-trans-Octahydro-3-indolizinyl)phenyl]thio]phenyl]acetamide Hydrochloride Hydrate] |  | 73%
8 | Cl.c1ccc(COc2ccc([C@@H]3CC[C@@H]4CCCCN43)cc2)cc1 (relative stereo) [Example 3b, trans-Octahydro-3-[4-(phenylmethoxy)phenyl]indolizine Hydrochloride] | 16.8 mg/kg | 
9 | CC(=O)Nc1cccc(/C=C\c2ccc([C@H]3CC[C@H]4CCCCN43)cc2)c1 (relative stereo) [Example 4] | 6.9 mg/kg | 
